In patent US7109193B2, “Tricyclic diazepines tocolytic oxytocin receptor antagonists” (Wyeth, priority 2001, dated 2006):

Biological target: T1, human oxytocin receptor (Homo sapiens, UniProt P30559)
T1 construct: host or cells: CHO cells (pcDNA3.1 vector)
T1 sequence (P30559 1-389): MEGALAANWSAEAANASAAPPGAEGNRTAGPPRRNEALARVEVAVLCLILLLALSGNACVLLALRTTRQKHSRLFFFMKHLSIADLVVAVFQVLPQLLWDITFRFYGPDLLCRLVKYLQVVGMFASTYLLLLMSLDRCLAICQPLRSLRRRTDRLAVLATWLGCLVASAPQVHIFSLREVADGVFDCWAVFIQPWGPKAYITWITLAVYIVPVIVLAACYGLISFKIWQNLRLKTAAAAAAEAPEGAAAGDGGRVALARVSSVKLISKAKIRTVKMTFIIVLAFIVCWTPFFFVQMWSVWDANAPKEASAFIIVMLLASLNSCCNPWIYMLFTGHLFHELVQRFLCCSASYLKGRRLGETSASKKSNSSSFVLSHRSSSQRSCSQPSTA
Assay: Oxytocin binding in Chinese Hamster Ovary cell membranes expressing human oxytocin receptors
Conditions: 100 nM, CHO cell membranes, [3H]oxytocin, values without parentheses, read-out: OT % inhibition @ 100% nM

An inhibition at 0.1 µM of 97% was found for `COc1cccc(-c2ccc(C(=O)N3Cc4ccc(C(=O)N(C)C5CCN(C)C5)n4Cc4ccccc43)cc2C)c1` (stereo not drawn) [Example 186, 10-[(3′-Methoxy-2-methyl[1,1′-biphenyl]-4-yl)carbonyl]-N-methyl-N-(1-methyl-3-pyrrolidinyl)-10,11-dihydro-5H-pyrrolo[2,1-c][1,4]benzodiazepine-3-carboxamide] in this work.
An inhibition at 0.1 µM of -4% was found for `COc1cc(-c2ccccc2C(F)(F)F)c(Cl)cc1C(=O)N1Cc2ccc(C(=O)O)n2Cc2ccccc21` [Example 15, 10-{[6-Chloro-3-methoxy-2′-trifluoromethyl-[1,1′-biphenyl]-4-yl]carbonyl}-10,11-dihydro-5H-pyrrolo[2,1-c][1,4]benzodiazepine-3-carboxylic acid] in this work.
An inhibition at 0.1 µM of 83% was found for `Cc1cc(C(=O)N2Cc3ccc(C(=O)N(C)C4CCN(C)CC4)n3Cc3ccccc32)ccc1-c1ccccc1C(F)(F)F` [Example 184, N-Methyl-N-(1-methyl-4-piperidinyl)-10-{[2-methyl-2′-(trifluoromethyl)[1,1′-biphenyl]-4-yl]carbonyl}-10,11-dihydro-5H-pyrrolo[2,1-c][1,4]benzodiazepine-3-carboxamide] in this work.
An inhibition at 0.1 µM of 47% was found for `COc1cccc(-c2ccc(C(=O)N3Cc4ccc(C(=O)NCCC5CCCN5C)n4Cc4ccccc43)cc2OC)c1` (stereo not drawn) [Example 172, 10-[(2,3′-Dimethoxy[1,1′-biphenyl]-4-yl)carbonyl]-N-[2-(1-methyl-2-pyrrolidinyl)ethyl]-10,11-dihydro-5H-pyrrolo[2,1-c][1,4]benzodiazepine-3-carboxamide] in this work.
An inhibition at 0.1 µM of 36% was found for `COc1cccc(-c2cc(OC)c(C(=O)N3Cc4ccc(C(=O)NCCC5CCCN5C)n4Cc4ccccc43)cc2Cl)c1` (stereo not drawn) [Example 169, 10-[(6-Chloro-3,3′-dimethoxy[1,1′-biphenyl]-4-yl)carbonyl]-N-[2-(1-methyl-2-pyrrolidinyl)ethyl]-10,11-dihydro-5H-pyrrolo[2,1-c][1,4]benzodiazepine-3-carboxamide] in this work.
An inhibition at 0.1 µM of 38% was found for `COc1cc(C(=O)N2Cc3ccc(C(=O)NCCN4CCCCC4)n3Cc3ccccc32)ccc1-c1cccc2ccccc12` [Example 157, 10-[3-Methoxy-4-(1-naphthyl)benzoyl]-N-[2-(1-piperidinyl)ethyl]-10,11-dihydro-5H-pyrrolo[2,1-c][1,4]benzodiazepine-3-carboxamide] in this work.
An inhibition at 0.1 µM of 87% was found for `Cc1ccccc1-c1ccc(C(=O)N2Cc3ccc(C(=O)N4CCN(CCN(C)C)CC4)n3Cc3ccccc32)cc1` [Example 200, {4-[2-(Dimethylamino)ethyl]-1-piperazinyl}{10-[(2′-methyl[1,1′-biphenyl]-4-yl)carbonyl]-10,11-dihydro-5H-pyrrolo[2,1-c][1,4]benzodiazepin-3-yl}methanone] in this work.
An inhibition at 0.1 µM of 84% was found for `C=CCN1CCN(C(=O)c2ccc3n2Cc2ccccc2N(C(=O)c2ccc(-c4ccccc4OC)c(C)c2)C3)CC1` [Example 222, (4-Allyl-1-piperazinyl){10-[(2′-methoxy-2-methyl[1,1′-biphenyl]-4-yl)carbonyl]-10,11-dihydro-5H-pyrrolo[2,1-c][1,4]benzodiazepin-3-yl}methanone] in this work.
An inhibition at 0.1 µM of 100% was found for `COc1cccc(-c2cc(OC)c(C(=O)N3Cc4ccc(C(=O)N(C)C5CCN(C)C5)n4Cc4ccccc43)cc2Cl)c1` (stereo not drawn) [Example 191, 10-[(6-Chloro-3,3′-dimethoxy[1,1′-biphenyl]-4-yl)carbonyl]-N-methyl-N-(1-methyl-3-pyrrolidinyl)-10,11-dihydro-5H-pyrrolo[2,1-c][1,4]benzodiazepine-3-carboxamide] in this work.
An inhibition at 0.1 µM of 96% was found for `COc1ccccc1-c1ccc(C(=O)N2Cc3ccc(C(=O)N(C)C4CCN(C)C4)n3Cc3ccccc32)cc1OC` (stereo not drawn) [Example 193, 10-[(2,2′-Dimethoxy[1,1′-biphenyl]-4-yl)carbonyl]-N-methyl-N-(1-methyl-3-pyrrolidinyl)-10,11-dihydro-5H-pyrrolo[2,1-c][1,4]benzodiazepine-3-carboxamide] in this work.
An inhibition at 0.1 µM of 82% was found for `COc1ccccc1-c1ccc(C(=O)N2Cc3ccc(C(=O)N4CCN(C(C)C)CC4)n3Cc3ccccc32)cc1` [Example 234, (4-Isopropyl-1-piperazinyl){10-[(2′-methoxy[1,1′-biphenyl]-4-yl)carbonyl]-10,11-dihydro-5H-pyrrolo[2,1-c][1,4]benzodiazepin-3-yl}methanone] in this work.
An inhibition at 0.1 µM of 24% was found for `CN(C)CCN1CCN(C(=O)c2ccc3n2Cc2ccccc2N(C(=O)c2ccc(-c4cccc5ccccc45)cc2Cl)C3)CC1` [Example 205, {10-[2-Chloro-4-(1-naphthyl)benzoyl]-10,11-dihydro-5H-pyrrolo[2,1-c][1,4]benzodiazepin-3-yl}{4-[2-(dimethylamino)ethyl]-1-piperazinyl}methanone] in this work.
An inhibition at 0.1 µM of 59% was found for `Cc1cc(C(=O)N2Cc3ccc(C(=O)NCCC4CCCN4C)n3Cc3ccccc32)ccc1-c1ccccc1C(F)(F)F` (stereo not drawn) [Example 174, N-[2-(1-Methyl-2-pyrrolidinyl)ethyl]-10-{[2-methyl-2′-(trifluoromethyl)[1,1′-biphenyl]-4-yl]carbonyl}-10,11-dihydro-5H-pyrrolo[2,1-c][1,4]benzodiazepine-3-carboxamide] in this work.
An inhibition at 0.1 µM of 56% was found for `Cc1cc(C(=O)N2Cc3ccc(C(=O)N4CCN(C(=O)OC(C)(C)C)CC4)n3Cc3ccccc32)ccc1-c1ccccc1C(F)(F)F` [Example 6, 4-[[10,11-Dihydro-10-[[2-methyl-2′-trifluoromethyl[1,1′-biphenyl]-4-yl]carbonyl]-5H-pyrrolo[2,1-c][1,4]benzodiazepin-3-yl]carbonyl]-1-piperazine-carboxylic acid, tert-butyl ester] in this work.
An inhibition at 0.1 µM of 82% was found for `Cc1cc(C(=O)N2Cc3ccc(C(=O)N4CCN(CCN5CCOCC5)CC4)n3Cc3ccccc32)ccc1-c1ccccc1C(F)(F)F` [Example 216, (10-{[2-Methyl-2′-(trifluoromethyl)[1,1′-biphenyl]-4-yl]carbonyl}-10,11-dihydro-5H -pyrrolo[2,1-c][1,4]benzodiazepin-3-yl){4-[2-(4-morpholinyl)ethyl]-1-piperazinyl}methanone] in this work.
An inhibition at 0.1 µM of 71% was found for `C=CCN1CCN(C(=O)c2ccc3n2Cc2ccccc2N(C(=O)c2cc(Cl)c(-c4cccc(OC)c4)cc2OC)C3)CC1` [Example 226, (4-Allyl-1-piperazinyl){10-[(6-chloro-3,3′-dimethoxy[1,1′-biphenyl]-4-yl)carbonyl]-10,11-dihydro-5H-pyrrolo[2,1-c][1,4]benzodiazepin-3-yl}methanone] in this work.
An inhibition at 0.1 µM of 64% was found for `COc1ccccc1-c1ccc(C(=O)N2Cc3ccc(C(=O)N4CCN(CCN5CCOCC5)CC4)n3Cc3ccccc32)cc1OC` [Example 214, {10-[(2,2′-Dimethoxy[1,1′-biphenyl]-4-yl)carbonyl]-10,11-dihydro-5H-pyrrolo[2,1-c][1,4]benzodiazepin-3-yl}{4-[2-(4-morpholinyl)ethyl]-1-piperazinyl}methanone] in this work.
An inhibition at 0.1 µM of 94% was found for `Cc1ccccc1-c1ccc(C(=O)N2Cc3ccc(C(=O)N4CCN(CCN(C)C)CC4)n3Cc3ccccc32)cc1C` [Example 198, {4-[2-(Dimethylamino)ethyl]-1-piperazinyl}{10-[(2,2′-dimethyl[1,1′-biphenyl]-4-yl)carbonyl]-10,11-dihydro-5H-pyrrolo[2,1-c][1,4]benzodiazepin-3-yl}methanone] in this work.
An inhibition at 0.1 µM of 50% was found for `COc1cccc(-c2ccc(C(=O)N3Cc4ccc(C(=O)NCCN5CCCCC5)n4Cc4ccccc43)cc2OC)c1` [Example 159, 10-[(2,3′-Dimethoxy[1,1′-biphenyl]-4-yl)carbonyl]-N-[2-(1-piperidinyl)ethyl]-10,11-dihydro-5H-pyrrolo[2,1-c][1,4]benzodiazepine-3-carboxamide] in this work.
An inhibition at 0.1 µM of 96% was found for `Cc1ccccc1-c1ccc(C(=O)N2Cc3ccc(C(=O)N(C)C4CCN(C)C4)n3Cc3ccccc32)cc1` (stereo not drawn) [Example 188, N-Methyl-10-[(2′-methyl[1,1′-biphenyl]-4-yl)carbonyl]-N-(1-methyl-3-pyrrolidinyl)-10,11-dihydro-5H-pyrrolo[2,1-c][1,4]benzodiazepine-3-carboxamide] in this work.
An inhibition at 0.1 µM of 52% was found for `COc1cc(-c2ccccc2C)c(Cl)cc1C(=O)N1Cc2ccc(C(=O)NCCC3CCCN3C)n2Cc2ccccc21` (stereo not drawn) [Example 168, 10-[(6-Chloro-3-methoxy-2′-methyl[1,1′-biphenyl]-4-yl)carbonyl]-N-[2-(1-methyl-2-pyrrolidinyl)ethyl]-10,11-dihydro-5H-pyrrolo[2,1-c][1,4]benzodiazepine-3-carboxamide] in this work.
An inhibition at 0.1 µM of 64% was found for `COc1cccc(-c2ccc(C(=O)N3Cc4ccc(C(=O)N5CCN(C(C)C)CC5)n4Cc4ccccc43)cc2C)c1` [Example 235, (4-Isopropyl-1-piperazinyl){10-[(3′-methoxy-2-methyl[1,1′-biphenyl]-4-yl)carbonyl]-10,11-dihydro-5H-pyrrolo[2,1-c][1,4]benzodiazepin-3-yl}methanone] in this work.
An inhibition at 0.1 µM of 82% was found for `Cc1ccccc1-c1ccc(C(=O)N2Cc3ccc(C(=O)NCCC4CCCN4C)n3Cc3ccccc32)cc1C` (stereo not drawn) [Example 163, 10-[(2,2′-Dimethyl[1,1′-biphenyl]-4-yl)carbonyl]-N-[2-(1-methyl-2-pyrrolidinyl)ethyl]-10,11-dihydro-5H-pyrrolo[2,1-c][1,4]benzodiazepine-3-carboxamide] in this work.
An inhibition at 0.1 µM of 100% was found for `COc1ccccc1-c1ccc(C(=O)N2Cc3ccc(C(=O)N(C)C4CCN(C)C4)n3Cc3ccccc32)cc1` (stereo not drawn) [Example 187, 10-[(2′-Methoxy[1,1′-biphenyl]-4-yl)carbonyl]-N-methyl-N-(1-methyl-3-pyrrolidinyl)-10,11-dihydro-5H-pyrrolo[2,1-c][1,4]benzodiazepine-3-carboxamide] in this work.
